This note sets out measurements from US20100261679A1 (priority 2007, published 2010).

Each structure is given as a SMILES string.

Test [1] addresses T1, cytoplasmic domain of the human CSF-1R (Homo sapiens, UniProt P07333).
T1 construct: Recombinant protein corresponding to the cytoplasmic domain of the human CSF-1R; purchased Invitrogen Corporation, Carlsbad, Calif; U.S.A. PV3249
T1 sequence (P07333 539-972 limits assumed): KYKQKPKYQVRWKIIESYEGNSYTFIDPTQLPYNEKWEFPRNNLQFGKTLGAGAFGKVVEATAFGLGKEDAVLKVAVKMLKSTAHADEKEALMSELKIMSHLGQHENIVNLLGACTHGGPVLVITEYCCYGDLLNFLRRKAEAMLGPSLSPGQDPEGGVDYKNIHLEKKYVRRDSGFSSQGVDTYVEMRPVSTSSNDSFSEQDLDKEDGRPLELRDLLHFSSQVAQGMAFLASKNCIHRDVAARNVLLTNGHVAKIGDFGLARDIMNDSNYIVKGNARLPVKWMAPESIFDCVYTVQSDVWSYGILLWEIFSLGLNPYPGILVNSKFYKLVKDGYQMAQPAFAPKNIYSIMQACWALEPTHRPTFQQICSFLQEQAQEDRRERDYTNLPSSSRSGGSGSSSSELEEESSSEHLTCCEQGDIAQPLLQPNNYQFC
In words: In vitro kinase assay for CSF-1R (AlphaScreen). The class given is biochemical. As to conditions: tested at about 1 μM. The procedure:
The kinase activity of various protein tyrosine kinases can be measured by providing ATP and a suitable peptide or protein tyrosine-containing substrate, and assaying the transfer of phosphate moiety to the tyrosine residue. Recombinant protein corresponding to the cytoplasmic domain of the human CSF-1R was purchased from Invitrogen Corporation, Carlsbad, Calif. U.S.A. (#PV3249). For each assay, test compounds were serially diluted, starting at 25 μM with 3 fold dilutions, in DMSO in 384 well plates then mixed with an appropriate kinase reaction buffer consisting of 50 mM Hepes, 5 mM MgCl2, 10 mM MnCl2, 0.1% BSA, pH 7.5, 1.0 mM dithiothreitol, 0.01% Tween 80 plus […]. Kinase protein and an appropriate biotinylated peptide substrate at 50 nM were added to give a final volume of 20 μL, reactions were incubated for 2 hours at room temperature and stopped by the addition of 10 μL of 45 mM EDTA, 50 mM Hepes pH 7.5. Added to the stopped reaction mix was 30 μL of PT66 Alphascreen beads (Perkin Elmer, Boston, Mass., U.S.A.). The reaction was incubated overnight and read on the Envision (Perkin Elmer). Phosphorylated peptide product was measured with the AlphaScreen system (Perkin Elmer) using acceptor beads coated with anti-phosphotyrosine antibody PT66 and donor beads coated with streptavidin that emit a fluorescent signal at the 520-620 nm emission wave length if in close proximity. The concentration of each compound for 50% inhibition (IC50) was calculated by non-linear regression using XL Fit data analysis software.
CSF-1R kinase was assayed in 50 mM Hepes pH 7.0, 5 mM MgCl2, 10 mM MnCl2, 1 mM DTT, 1 mg/mL BSA, 1.0 μM ATP, and 0.05 μM biotin-GGGGRPRAATF-NH2 (SEQ ID NO:2) peptide substrate. CSF-1R kinase was added at final concentration of 4 nM.
(Bead proximity is the source of the signal in Alpha formats.)

The target in another test is T2, cKIT (Homo sapiens, UniProt P10721).
T2 construct: The kinase domain of cKIT was assayed in 50 mM Hepes; purchased Upstate 14-559
Description: Inhibition of cKIT kinase in an in vitro biochemical assay (alphascreen). The note with it: tested at about 1 μM. The procedure: (§1) The IC50 values for the inhibition of RTKs were determined in the alphascreen format measuring the inhibition by compound of phosphate transfer to a substrate by the respective enzyme. Briefly, the respective RTK domain purchased as human recombinant protein (cKIT Upstate #14-559, PDGFRb Invitrogen #P3082) were incubated with serial dilutions of compound in the presence of substrate and ATP concentrations within 3 times the Km of the enzyme.
(§2) The kinase domain of cKIT was assayed in 50 mM Hepes, pH=7.5, 5 mM MgCl2, 10 mM MnCl2, 1 mM DTT, 0.1% BSA with 0.06 uM biotinylated peptide substrate (GGLFDDPSYVNVQNL-NH2) and 15 μM ATP (ATP KM apparent =15 μM). The kinase domain of PDGFRβ was assayed in 50 mM Hepes, pH=7.5, 20 mM MgCl2, 1 mM DTT, 0.1% BSA with 0.1 μM biotinylated peptide substrate (GGLFDDPSYVNVQNL-NH2) and 10 μM ATP (ATP KM apparent=25 μM). Reactions were incubated at room temperature for 3 to 4 hr and stopped with buffer (20 mM EDTA, 0.01% Tween-20 for both PDGFRβ and cKIT). Alphascreen PY20 beads were added to the stopped cKIT reactions and PY20 Ab/Protein A Alphascreen beads were added to the PDGFRβ stopped reactions. Both reactions were incubated overnight and read on the Alphascreen reader. The concentration of compound for 50% inhibition (IC50) was calculated employing non-linear regression using XL-Fit data analysis software. As a control compound, staurosporine is run in every assay and a Z′>0.5 is required to validate results.

The target of another test is T3, PDGFRb (Homo sapiens, UniProt P09619).
T3 construct: The kinase domain of PDGFRβ was assayed in 50 mM Hepes; purchased Invitrogen P3082
In words: Inhibition of PDGFRb kinase in an in vitro biochemical assay (alphascreen). As to conditions: tested at about 1 μM; read-out: PDGFR % inhibition at 1 μM. The procedure:
as §1, §2

T2 sequence (P10721 589-937 limits assumed): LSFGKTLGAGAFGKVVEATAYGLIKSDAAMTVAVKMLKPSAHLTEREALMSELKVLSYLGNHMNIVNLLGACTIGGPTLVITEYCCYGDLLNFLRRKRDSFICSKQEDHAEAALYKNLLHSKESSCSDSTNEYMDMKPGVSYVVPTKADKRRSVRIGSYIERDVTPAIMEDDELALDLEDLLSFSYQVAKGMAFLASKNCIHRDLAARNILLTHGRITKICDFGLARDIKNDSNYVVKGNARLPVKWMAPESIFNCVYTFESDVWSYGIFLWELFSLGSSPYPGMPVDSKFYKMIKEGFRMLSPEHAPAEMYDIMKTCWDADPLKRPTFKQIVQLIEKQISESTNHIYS
T3 sequence (P09619 600-962 limits assumed): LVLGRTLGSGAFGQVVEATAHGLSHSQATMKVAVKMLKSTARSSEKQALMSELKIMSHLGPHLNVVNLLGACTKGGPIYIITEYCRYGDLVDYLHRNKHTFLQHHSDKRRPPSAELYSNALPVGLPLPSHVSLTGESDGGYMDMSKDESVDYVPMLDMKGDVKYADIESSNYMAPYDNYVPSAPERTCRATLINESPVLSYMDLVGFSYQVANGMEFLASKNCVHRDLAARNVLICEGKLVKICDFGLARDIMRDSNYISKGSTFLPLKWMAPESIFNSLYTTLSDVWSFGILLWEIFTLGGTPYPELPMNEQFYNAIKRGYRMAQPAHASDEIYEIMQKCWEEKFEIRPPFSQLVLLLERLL

One may read the inhibition as how much of the control response was suppressed. For the molecule `CNC(=O)c1cc(Oc2ccc3nc(Nc4ccccc4N4CCN(C)CC4)ncc3c2)ccn1` [Example 54, N-methyl-4-(2-(2-(4-methylpiperazin-1-yl)phenylamino)quinazolin-6-yloxy)picolinamide], the inhibition at 1 µM is 65% in test [1], 47% against cKIT and 20% on PDGFRb.
For the molecule `CNC(=O)c1cc(Oc2ccc3nc(Nc4ccccc4CN4CCOCC4)ncc3c2)ccn1` [Example 67, N-methyl-4-(2-(2-(morpholinomethyl)phenylamino)quinazolin-6-yloxy)picolinamide], the inhibition at 1 µM in test [1] is 96%; against cKIT, 13%; at PDGFRb it was under 1%.
Regarding `CNC(=O)c1cc(Oc2ccc3nc(NC4CCN(C(=O)OC(C)(C)C)CC4)ncc3c2)ccn1` [Example 57, tert-butyl 4-(6-(2-(methylcarbamoyl)pyridin-4-yloxy)quinazolin-2-ylamino)piperidine-1-carboxylate], the inhibition at 1 µM in test [1] is 93%; against cKIT it was 12%; on PDGFRb, 2%.
Consider `CNC(=O)c1cc(Oc2ccc3nc(NCC4CCCCC4)ncc3c2)ccn1` [Example 39, 4-(2-(cyclohexylmethylamino)quinazolin-6-yloxy)-N-methylpicolinamide], for which the inhibition at 1 µM was determined as 99% in test [1], 10% at cKIT and 52% at PDGFRb.
The like results for `CNC(=O)c1cc(Oc2ccc3nc(N[C@@H]4CCCC[C@H]4O)ncc3c2)ccn1` [Example 11] were, in that order, 99%, 23% and 21%.
The matching figures for `CNC(=O)c1cc(Oc2ccc3nc(NCc4cccc5c4OCCO5)ncc3c2)ccn1` [Example 42, 4-(2-((2,3-dihydrobenzo[b][1,4]dioxin-5-yl)methylamino)quinazolin-6-yloxy)-N-methylpicolinamide]: 100%, 99% and 66%.
As to `CNC(=O)c1cc(Oc2ccc3nc(N[C@@H](CO)C4CCCCC4)ccc3c2)ccn1` [Example 7], the inhibition at 1 µM amounted to 98% in test [1], 31% on cKIT and 16% on PDGFRb.
The matching figures for `CNC(=O)c1cc(Oc2ccc3nc(N[C@H](CO)C4CCCCC4)ncc3c2)ccn1` [Cmpd 18, (S)-4-(2-(1-cyclohexyl-2-hydroxyethylamino)quinazolin-6-yloxy)-N-methylpicolinamide]: 99%, 30% and 31%.
The like results for `CNC(=O)c1cc(Oc2ccc3nc(NC4CCCC4)ncc3c2)ccn1` [Example 66, 4-(2-(cyclopentylamino)quinazolin-6-yloxy)-N-methylpicolinamide] were, in that order, 96%, 13% and under 1%.
On to `CNC(=O)c1cc(Oc2ccc3nc(N[C@H](CO)Cc4ccccc4)ncc3c2)ccn1` [Example 13], for which the inhibition at 1 µM came out at 88% in test [1], 28% at cKIT and 24% on PDGFRb.
The like results for `CN(C)C(=O)c1cc(Oc2ccc3nc(Nc4ccccc4N4CCOCC4)ncc3c2)ccn1` [Example 31, N,N-dimethyl-4-(2-(2-morpholinophenylamino)quinazolin-6-yloxy)picolinamide] were, in that order, 67%, 8% and under 1%.
Consider `CNC(=O)c1cc(Oc2ccc3nc(N[C@H]4c5ccccc5C[C@H]4O)ncc3c2)ccn1` [Cmpd 20, 4-(2-((1S,2R)-2-hydroxy-2,3-dihydro-1H-inden-1-ylamino)quinazolin-6-yloxy)-N-methylpicolinamide], for which the inhibition at 1 µM in test [1] came to 100%; against cKIT, 60%; at PDGFRb, 25%.
